{"source": "patent US20230226070A1", "about": "“TREATMENT OF THROMBOSIS AND ASSOCIATED DISORDERS WITH AN ANTI-PLATELET AGENT” (THE HEART RESEARCH INSTITUTE LTD, priority 2020, published 2023)", "key": {"[1]": {"test_system": "ischaemic stroke after carotid artery thrombotic occlusion and contralateral stenosis", "format": "in vivo"}, "[2]": {"test_system": "tail bleeding", "assay": "3 mm tail lop (tail transection) bleeding assay", "protocol": "Bleeding was assessed using a 3 mm tail lop assay. Drug treatments (bolus) were administered 10 min before the start of tail bleeding. When a 30 min infusion was used, the tail bleeding experiment began as soon as the infusion finished. Following drug administration, a 3 mm long section of the tail tip was removed using a scalpel blade and the tail tip immersed in warmed saline. Bleeding was monitored until cessation and the time recorded. […] If the tail did re-bleed, length of time of rebleeding was also recorded. The experiment was ended when bleeding had ceased for at least 2 min, or at 30 min post-tail tip removal. Haemoglobin was quantified using 2 methods [(i, ii) using Abs 575 nm; (iii) using a colorimetric haemoglobin assay, as per the manufacturer's instructions (Sigma Aldrich, Haemoglobin Assay Kit MAK115)]. The treatment dosing regimens were as follows: rtPA (10 mg/kg: 1 mg/kg bolus, 9 mg/kg infusion over 30 min); Integrilin (1-10 mg/kg, bolus every 15 minutes); TGX221 (2.5 mg/kg; single bolus 15 minutes prior to lop); Arg—argatroban (80 ug/kg bolus; 40 ug/kg/min infusion 60). […] Data are presented as mean±SEM.\nIn addition, 15 minutes following commencement of treatment administration, tail transection (3 mm) was performed, and the tail tip immersed in warm (37° C.) saline to allow for blood collection from the tail (as described under “Methods”). Flow of blood was assessed over 30 minutes and any periods of blood flow cessation and rebleeding noted. Blood monitoring and collection was ceased at 30 minutes after lop, for all mice. Haemoglobin content was assessed in the collected sample using a colorimetric haemoglobin assay, as per the manufacturer's instructions (Sigma Aldrich, Haemoglobin Assay Kit MAK115). Data was analysed using a one-way ANOVA relative to Vehicle. […] The bar graph depicts mean±SD, where ***P<0.0005, ^nsP>0.05."}, "[3]": {"test_system": "occlusive thrombus in the mouse carotid artery", "assay": "carotid artery thrombosis model: occlusive thrombus formation induced by electrolytic injury, recanalisation classified from carotid blood flow", "format": "in vivo, C57BL/6 male mice", "settings": "for thrombolysis, recanalisation and vessel reocclusion (in words): dual therapy: antiplatelet agent 2.5 mg/kg together with rtPA 10 mg/kg; for comparative anti-platelet efficacy in vivo, TGX221 versus AZD6482: each 2.5 mg/kg combined with rtPA 10 mg/kg; for lysis of 4.5 hours aged clots (in words): treatment 270 min after occlusion, triple therapy versus rtPA/argatroban dual therapy; for recanalisation of older (aged) clots (in words): triple therapy: rtPA + argatroban + antiplatelet agent (2.5 mg/kg, 2x bolus), treatment 15, 120 or 270 min after occlusion"}, "[4]": {"test_system": "mouse blood/platelets", "assay": "ADP-induced aggregation in PPACK-anticoagulated PRP (Integrilin dose-response)", "format": "cell-based", "description": "Data are presented as mean±SEM."}}, "note": "“Also recorded” adds a separate entry of the source. Where a SMILES comes first, the peptide text is derived from it. Bridges are numbered along the chain shown (N, C = ends). [ ]: non-standard residue; d: D form. hArg = N=C(N)NCCCC[C@H](N)C(=O)O; Mpa = O=C(O)CCS"}
{"compound": "Cc1cc(C(C)Nc2ccccc2)c2nc(N3CCOCC3)cc(=O)n2c1", "note": "(racemic) [TGX221, (±)-7-methyl-2-morpholin-4-yl-9-(1-phenylaminoethyl)-pyrido[1,2-a]pyrimidin-4-one]", "values": [{"measurement": "vessel (carotid) recanalisation (in words)", "setting": "[1]; triple therapy: TGX221 2.5 mg/kg + argatroban + rtPA 10 mg/kg, 5 min after stroke onset", "value": "improved blood flow (recanalisation)"}, {"measurement": "cerebral perfusion (in words)", "setting": "[1]; triple therapy: TGX221 + argatroban + rtPA", "value": "improved cerebral reperfusion"}, {"measurement": "cerebral infarct (TTC staining, in words)", "setting": "[1]; triple therapy: TGX221 + argatroban + rtPA, 24 hours", "value": "reduced cerebral infarct"}, {"measurement": "tail bleeding (in words)", "setting": "[2]; administered alone (TGX221 2.5 mg/kg; Integrilin 3 mg/kg and above)", "value": "does not Increase Tail Bleeding"}, {"measurement": "tail bleeding (in words)", "setting": "[2]; in combination with rt-PA (10 mg/kg; for TGX221 also up to 20 mg/kg)", "value": "promising bleeding profile"}, {"measurement": "thrombolysis, recanalisation and vessel reocclusion (in words)", "setting": "[3]; 15 min after occlusion", "value": "improves thrombolysis and vessel reocclusion over and above that achieved with rtPA alone; also recorded: effectively enhancing recanalisation"}, {"measurement": "comparative anti-platelet efficacy in vivo, TGX221 versus AZD6482", "setting": "[3]", "value": "equipotent"}, {"measurement": "lysis of 4.5 hours aged clots (in words)", "setting": "[3]", "value": "benefit"}, {"measurement": "recanalisation and reocclusion (in words)", "setting": "[3]; triple therapy: TGX221 2.5 mg/kg + argatroban + rtPA 10 mg/kg, 15 min after occlusion", "value": "improving recanalisation as well as reducing reocclusion"}, {"measurement": "recanalisation of older (aged) clots (in words)", "setting": "[3]", "value": "improving recanalization of older clots"}]}
{"compound": "Cc1cc([C@@H](C)Nc2ccccc2C(=O)O)c2nc(N3CCOCC3)cc(=O)n2c1", "note": "[AZD6482, (−)-2-({1R-[7-methyl-2-(morpholin-4-yl)-4-oxo-pyrido[1,2-a]pyrimidin-9-yl]ethyl}amino)benzoic acid]", "values": [{"measurement": "thrombolysis, recanalisation and vessel reocclusion (in words)", "setting": "[3]; 15 min after occlusion", "value": "improves thrombolysis and vessel reocclusion over and above that achieved with rtPA alone; also recorded: effectively enhancing recanalisation"}, {"measurement": "comparative anti-platelet efficacy in vivo, TGX221 versus AZD6482", "setting": "[3]", "value": "equipotent"}, {"measurement": "lysis of 4.5 hours aged clots (in words)", "setting": "[3]", "value": "benefit"}, {"measurement": "recanalisation of older (aged) clots (in words)", "setting": "[3]", "value": "improving recanalization of older clots"}]}
{"compound": "N=C(N)NCCCC[C@@H]1NC(=O)CCSSC[C@@H](C(N)=O)NC(=O)[C@@H]2CCCN2C(=O)[C@H](Cc2c[nH]c3ccccc23)NC(=O)[C@H](CC(=O)O)NC(=O)CNC1=O", "note": "[Integrilin, Eptifibatide, reference compound] ([Mpa][hArg]GDWPC-NH2; disulfide 1-7)", "values": [{"measurement": "inhibition of ADP-induced aggregation", "setting": "[4]; 3.0 mg/kg ('Stroke' dose)", "value": "approximately 60%"}, {"measurement": "inhibition of ADP-induced aggregation", "setting": "[4]; 4.0 mg/kg ('AMI' dose)", "value": "~80", "unit": "%"}, {"measurement": "stable recanalisation of the occluded carotid artery (in words)", "setting": "[1]; integrilin 4 mg/kg every 15 min with rtPA 10 mg/kg and argatroban", "value": "enhances stable recanalisation"}, {"measurement": "tail bleeding / safety (in words)", "setting": "[2]; triple therapy with rt-PA 10 mg/kg and argatroban", "value": "accompanied by an increase in bleeding"}]}
{"compound": "rtPA: recombinant tissue plasminogen activator, thrombolytic agent, purchased from Boehringer Ingelheim", "values": [{"measurement": "recanalisation category / re-thrombosis (in words)", "setting": "[3]; rt-PA monotherapy 10 mg/kg, 15 min after occlusion, 60 min monitoring", "value": "induces transient recanalisation"}, {"measurement": "clot lysis and recanalisation of the carotid, share of vessels", "setting": "[3]; rtPA 10 mg/kg i.v. alone, 15 min after occlusion, blood flow monitored 60 min", "value": "approximately 25%"}]}
